Results reported in patent publication US10858356B2, “Pyrazolopyridine derivative having GLP-1 receptor agonist effect” (Chugai Seiyaku Kabushiki Kaisha, priority 2016, dated 2020).
Where two headings read alike, the source gives them in different places.

Key:
Type in all cases: in vivo, cynomolgus monkey
male cynomolgus monkeys [1] = test: Insulin secretion promoting and blood glucose lowering effects after intravenous glucose
Description: Next, a 50% glucose solution (glucose administration weight to the monkey: 0.5 g/kg) was intravenously administered and a blood sample was collected every 5 min or 10 min to measure the plasma insulin and glucose concentrations. The area under the curve was calculated from the time course of each parameter after the drug administration to evaluate the insulin secretion promoting effect and the blood glucose lowering effect.

male cynomolgus monkeys [2] = tested on: male cynomolgus monkeys
[3] = Pharmacokinetics after oral administration; conditions: for Cmax / Tmax / AUC(0-t): male, cynomolgus monkey, plasma, calcium salt hydrate crystal (Sample 162a) suspension, n=2; for AUC(0-t): read-out: AUC0-24 h
Description: The plasma concentrations of the drug were determined by liquid chromatography tandem-mass spectrometry. The lower limit of quantification was 0.3 ng/mL.

[4] = continuous i.v. 40 min, steady-state plasma concentration 0.94 to 4.8 nmol/L, then i.v. glucose 0.5 g/kg, vs vehicle

- time after oral administration at which plasma concentrations reached Cmax ([3]; all dosages (0.05, 0.15, 0.45 and 1.35 mg/kg), oral): 2 h
- Cmax ([3]; 0.05 mg/kg oral): 4.78 ng/mL
- Tmax ([3]; 0.05 mg/kg oral): 2 h
- AUC(0-t) ([3]; 0.05 mg/kg oral): 23.7 ng·h/mL
- Cmax ([3]; 0.15 mg/kg oral): 20.7 ng/mL
- Tmax ([3]; 0.15 mg/kg oral): 2 h
- AUC(0-t) ([3]; 0.15 mg/kg oral): 135 ng·h/mL
- Cmax ([3]; 0.45 mg/kg oral): 32 ng/mL
- Tmax ([3]; 0.45 mg/kg oral): 2 h
- AUC(0-t) ([3]; 0.45 mg/kg oral): 208 ng·h/mL
- Cmax ([3]; 1.35 mg/kg oral): 148 ng/mL
- Tmax ([3]; 1.35 mg/kg oral): 2 h
- AUC(0-t) ([3]; 1.35 mg/kg oral): 1040 ng·h/mL
SMILES: Cc1cc(-n2nc3c(c2-n2ccn(-c4ccc5c(cnn5C)c4F)c2=O)[C@H](C)N(C(=O)c2cc4cc([C@H]5CCOC(C)(C)C5)ccc4n2[C@@]2(c4noc(=O)[nH]4)C[C@@H]2C)CC3)cc(C)c1F [Example Compound 67, 3-[(1S,2S)-1-[5-[(4S)-2,2-dimethyloxan-4-yl]-2-[(4S)-2-(4-fluoro-3,5-dimethylphenyl)-3-[3-(4-fluoro-1-methylindazol-5-yl)-2-oxoimidazol-1-yl]-4-methyl-6,7-dihydro-4H-pyrazolo[4,3-c]pyridine-5-carbonyl]indol-1-yl]-2-methylcyclopropyl]-4H-1,2,4-oxadiazol-5-one]
- area under the curve of insulin (male cynomolgus monkeys [1]; [4]): increase in the area under the curve of insulin
- area under the curve of plasma glucose (male cynomolgus monkeys [1]; [4]): decrease in the area under the curve of plasma glucose
- plasma concentration at which insulin secretion promoting and blood glucose lowering effects are equivalent to exenatide (male cynomolgus monkeys [1]; steady-state plasma concentration, i.v. infusion): ≥ 1.6 nmol/L
- degree of suppression of food intake compared with control drug (male cynomolgus monkeys [2]; oral 0.05 or 0.1 mg/kg vs exenatide s.c. 0.3 or 0.6 μg/kg): almost equivalent to the control drug exenatide
- food intake (male cynomolgus monkeys [2]; oral, 5 consecutive days, 0.05 or 0.1 mg/kg, food intake for 90 min from 3 h after administration): suppressed the food intake in a dosage dependent manner
- absorption in the intestinal tract and elimination ([3]; oral 0.05 to 1.35 mg/kg): dose-proportionally absorbed in the intestinal tract and eliminated
